# From paper PMC10176470, “Engaging a Non-catalytic Cysteine Residue Drives Potent and Selective Inhibition of Caspase-6” (Journal of the American Chemical Society, 2023)
# Legend:
# Assay type in all cases: cell-based
# [1] = target: proteins of HEK293T cells transiently overexpressing caspase-6 (Homo sapiens, UniProt Q02543); details: exp_ref Probe; protein RPL18A (Q02543); analysis C6
# [2] = target: T1, proteins of HEK293T cells transiently overexpressing caspase-6 (Homo sapiens, UniProt P00505)
# T1 sequence (P00505 30-430): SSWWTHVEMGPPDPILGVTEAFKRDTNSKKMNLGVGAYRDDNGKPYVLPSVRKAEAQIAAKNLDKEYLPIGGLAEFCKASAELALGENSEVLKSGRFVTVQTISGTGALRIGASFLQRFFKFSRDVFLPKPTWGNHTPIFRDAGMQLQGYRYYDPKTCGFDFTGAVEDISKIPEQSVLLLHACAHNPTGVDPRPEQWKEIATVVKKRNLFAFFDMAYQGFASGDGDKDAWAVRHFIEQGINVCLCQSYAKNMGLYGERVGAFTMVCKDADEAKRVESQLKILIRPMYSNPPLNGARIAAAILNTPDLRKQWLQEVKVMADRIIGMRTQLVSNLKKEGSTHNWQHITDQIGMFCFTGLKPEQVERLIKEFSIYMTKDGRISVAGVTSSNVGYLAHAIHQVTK
# [3] = target: proteins of HEK293T cells transiently overexpressing caspase-6 (Homo sapiens, UniProt O15355); details: exp_ref Probe; protein PPM1G (O15355); analysis C6
# Sequence of proteins of HEK293T cells transiently overexpressing caspase-6 (Homo sapiens, UniProt O15355) (O15355 whole entry): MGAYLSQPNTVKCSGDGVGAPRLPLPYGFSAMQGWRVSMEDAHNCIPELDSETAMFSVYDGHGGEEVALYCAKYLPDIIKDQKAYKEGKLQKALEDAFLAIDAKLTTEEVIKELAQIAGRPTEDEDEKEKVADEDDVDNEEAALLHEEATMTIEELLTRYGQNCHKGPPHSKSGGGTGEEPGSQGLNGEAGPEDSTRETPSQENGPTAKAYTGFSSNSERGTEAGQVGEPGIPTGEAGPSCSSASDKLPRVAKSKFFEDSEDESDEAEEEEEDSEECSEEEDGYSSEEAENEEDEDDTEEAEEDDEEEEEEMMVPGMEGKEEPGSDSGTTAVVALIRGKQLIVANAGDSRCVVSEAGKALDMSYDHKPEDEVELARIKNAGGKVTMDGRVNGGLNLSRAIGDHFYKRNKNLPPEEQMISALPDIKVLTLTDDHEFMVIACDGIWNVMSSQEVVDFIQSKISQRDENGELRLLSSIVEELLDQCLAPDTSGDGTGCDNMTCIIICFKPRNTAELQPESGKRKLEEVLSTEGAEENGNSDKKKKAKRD
# [4] = target: proteins of HEK293T cells transiently overexpressing caspase-6 (Homo sapiens, UniProt P12956); details: protein XRCC6 (P12956)
# Sequence of proteins of HEK293T cells transiently overexpressing caspase-6 (Homo sapiens, UniProt P12956) (P12956 whole entry): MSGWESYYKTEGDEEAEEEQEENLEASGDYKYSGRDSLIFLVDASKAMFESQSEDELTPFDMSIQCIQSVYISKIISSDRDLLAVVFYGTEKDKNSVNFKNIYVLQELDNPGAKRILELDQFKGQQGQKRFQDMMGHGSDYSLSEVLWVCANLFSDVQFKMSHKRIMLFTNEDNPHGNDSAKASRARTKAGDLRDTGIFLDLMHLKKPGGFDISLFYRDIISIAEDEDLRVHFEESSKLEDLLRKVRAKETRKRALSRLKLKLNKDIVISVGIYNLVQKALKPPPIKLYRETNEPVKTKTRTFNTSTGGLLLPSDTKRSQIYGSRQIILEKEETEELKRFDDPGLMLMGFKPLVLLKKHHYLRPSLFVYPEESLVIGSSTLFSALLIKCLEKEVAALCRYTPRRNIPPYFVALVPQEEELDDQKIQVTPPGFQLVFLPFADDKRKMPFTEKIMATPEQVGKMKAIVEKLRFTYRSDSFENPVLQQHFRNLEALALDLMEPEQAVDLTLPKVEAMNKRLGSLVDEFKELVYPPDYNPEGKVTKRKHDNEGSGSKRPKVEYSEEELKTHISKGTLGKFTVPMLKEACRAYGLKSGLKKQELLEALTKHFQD
# [5] = target: proteins of HEK293T cells transiently overexpressing caspase-6 (Homo sapiens, UniProt O14980); details: protein XPO1 (O14980); exp_ref Probe; analysis C6
# [6] = target: proteins of HEK293T cells transiently overexpressing caspase-6 (Homo sapiens, UniProt P61313)
# [7] = target: proteins of HEK293T cells transiently overexpressing caspase-6 (Homo sapiens, UniProt P62805)
# [8] = target: T2, proteins of HEK293T cells transiently overexpressing caspase-6 (Homo sapiens, UniProt P14324); details: Probe; protein FDPS P14324
# T2 sequence (P14324 1-419): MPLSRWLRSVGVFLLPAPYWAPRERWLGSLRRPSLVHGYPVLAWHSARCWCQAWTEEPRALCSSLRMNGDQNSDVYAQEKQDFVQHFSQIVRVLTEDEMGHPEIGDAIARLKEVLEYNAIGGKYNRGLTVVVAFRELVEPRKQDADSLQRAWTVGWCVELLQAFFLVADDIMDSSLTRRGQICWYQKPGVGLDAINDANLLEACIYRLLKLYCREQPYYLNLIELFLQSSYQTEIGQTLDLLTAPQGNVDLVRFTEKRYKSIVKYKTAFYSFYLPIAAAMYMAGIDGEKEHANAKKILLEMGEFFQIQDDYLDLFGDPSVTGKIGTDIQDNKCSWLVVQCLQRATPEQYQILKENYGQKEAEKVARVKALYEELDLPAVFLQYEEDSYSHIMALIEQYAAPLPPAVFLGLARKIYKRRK
# [9] = target: T3, proteins of HEK293T cells transiently overexpressing caspase-6 (Homo sapiens, UniProt P78417); details: protein GSTO1 (P78417)
# T3 sequence (P78417 1-241): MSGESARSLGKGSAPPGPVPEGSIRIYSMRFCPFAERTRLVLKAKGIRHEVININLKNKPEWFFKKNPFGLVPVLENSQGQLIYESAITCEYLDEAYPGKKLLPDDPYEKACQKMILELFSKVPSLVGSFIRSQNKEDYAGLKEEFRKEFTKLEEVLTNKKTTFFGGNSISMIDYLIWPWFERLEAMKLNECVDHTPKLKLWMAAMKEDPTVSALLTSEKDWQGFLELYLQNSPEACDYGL
# [10] = target: proteins of HEK293T cells transiently overexpressing caspase-6 (Homo sapiens, UniProt Q13148); details: protein TARDBP (Q13148); exp_ref Probe; analysis C6
# [11] = target: proteins of HEK293T cells transiently overexpressing caspase-6 (Homo sapiens, UniProt P78527); details: exp_ref Probe; protein PRKDC (P78527); analysis C6
# [12] = target: proteins of HEK293T cells transiently overexpressing caspase-6 (Homo sapiens, UniProt Q99460); details: protein PSMD1 (Q99460); exp_ref Probe; analysis C6
# Sequence of proteins of HEK293T cells transiently overexpressing caspase-6 (Homo sapiens, UniProt Q99460) (Q99460 whole entry): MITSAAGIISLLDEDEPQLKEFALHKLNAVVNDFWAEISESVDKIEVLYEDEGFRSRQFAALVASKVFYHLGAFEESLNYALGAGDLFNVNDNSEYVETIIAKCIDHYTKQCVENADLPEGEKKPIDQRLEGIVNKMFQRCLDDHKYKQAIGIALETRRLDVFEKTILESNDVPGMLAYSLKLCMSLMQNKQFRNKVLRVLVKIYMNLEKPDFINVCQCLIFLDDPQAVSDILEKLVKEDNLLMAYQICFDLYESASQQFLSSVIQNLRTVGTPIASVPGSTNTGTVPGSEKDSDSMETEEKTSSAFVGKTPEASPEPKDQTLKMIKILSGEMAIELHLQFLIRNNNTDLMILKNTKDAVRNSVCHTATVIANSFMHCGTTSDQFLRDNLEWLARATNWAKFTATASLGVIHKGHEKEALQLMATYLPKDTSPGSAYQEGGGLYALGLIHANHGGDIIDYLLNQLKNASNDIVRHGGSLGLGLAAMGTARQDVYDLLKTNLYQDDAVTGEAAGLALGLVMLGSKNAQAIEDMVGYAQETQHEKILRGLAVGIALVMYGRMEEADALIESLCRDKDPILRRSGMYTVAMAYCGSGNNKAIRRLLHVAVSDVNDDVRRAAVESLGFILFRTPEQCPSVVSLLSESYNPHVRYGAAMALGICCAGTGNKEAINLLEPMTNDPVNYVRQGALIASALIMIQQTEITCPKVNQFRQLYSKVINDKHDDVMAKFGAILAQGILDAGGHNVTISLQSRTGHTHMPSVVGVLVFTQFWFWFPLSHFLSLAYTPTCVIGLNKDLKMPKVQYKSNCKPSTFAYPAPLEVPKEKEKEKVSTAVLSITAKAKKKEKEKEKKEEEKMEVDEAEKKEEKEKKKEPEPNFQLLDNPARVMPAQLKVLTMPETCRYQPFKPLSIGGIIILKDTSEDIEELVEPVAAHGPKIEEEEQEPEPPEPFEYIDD
# [13] = target: proteins of HEK293T cells transiently overexpressing caspase-6 (Homo sapiens, UniProt Q13085)
# [14] = target: proteins of HEK293T cells transiently overexpressing caspase-6 (Homo sapiens, UniProt Q86VP6); details: exp_ref Probe; protein CAND1 (Q86VP6); analysis C6
# [15] = target: proteins of HEK293T cells transiently overexpressing caspase-6 (Homo sapiens, UniProt P13667); details: Probe; protein PDIA4 P13667
# Sequence of proteins of HEK293T cells transiently overexpressing caspase-6 (Homo sapiens, UniProt P13667) (P13667 21-645): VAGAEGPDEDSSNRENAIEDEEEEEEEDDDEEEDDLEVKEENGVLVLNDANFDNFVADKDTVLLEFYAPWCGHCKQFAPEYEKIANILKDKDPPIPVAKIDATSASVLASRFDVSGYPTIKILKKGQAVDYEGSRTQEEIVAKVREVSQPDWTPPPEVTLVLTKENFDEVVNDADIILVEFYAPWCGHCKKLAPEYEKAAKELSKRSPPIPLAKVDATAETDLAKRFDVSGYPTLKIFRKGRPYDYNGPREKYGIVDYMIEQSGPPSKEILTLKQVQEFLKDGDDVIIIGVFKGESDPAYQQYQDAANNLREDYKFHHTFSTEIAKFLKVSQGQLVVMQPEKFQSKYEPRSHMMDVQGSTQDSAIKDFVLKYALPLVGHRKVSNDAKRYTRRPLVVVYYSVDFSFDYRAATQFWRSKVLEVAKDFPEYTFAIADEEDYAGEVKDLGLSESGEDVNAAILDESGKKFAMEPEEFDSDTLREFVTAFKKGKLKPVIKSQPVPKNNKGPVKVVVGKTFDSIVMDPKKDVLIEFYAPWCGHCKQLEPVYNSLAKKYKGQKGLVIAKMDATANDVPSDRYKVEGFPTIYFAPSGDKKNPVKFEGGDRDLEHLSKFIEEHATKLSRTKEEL
# [16] = target: proteins of HEK293T cells transiently overexpressing caspase-6 (Homo sapiens, UniProt Q99873); details: exp_ref Probe; protein PRMT1 (Q99873); analysis C6
# Sequence of proteins of HEK293T cells transiently overexpressing caspase-6 (Homo sapiens, UniProt Q99873) (Q99873 whole entry): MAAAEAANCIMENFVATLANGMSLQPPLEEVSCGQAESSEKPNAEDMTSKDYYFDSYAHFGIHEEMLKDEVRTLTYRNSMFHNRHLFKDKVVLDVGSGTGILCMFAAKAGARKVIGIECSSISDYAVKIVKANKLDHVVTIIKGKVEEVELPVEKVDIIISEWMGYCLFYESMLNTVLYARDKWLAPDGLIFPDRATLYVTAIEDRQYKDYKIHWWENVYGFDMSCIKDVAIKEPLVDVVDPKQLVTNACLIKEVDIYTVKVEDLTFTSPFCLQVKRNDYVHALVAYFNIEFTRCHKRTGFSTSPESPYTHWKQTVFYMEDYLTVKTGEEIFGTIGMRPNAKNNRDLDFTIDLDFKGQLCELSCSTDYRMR
# [17] = target: proteins of HEK293T cells transiently overexpressing caspase-6 (Homo sapiens, UniProt Q04637); details: protein EIF4G1 (Q04637)
# Sequence of proteins of HEK293T cells transiently overexpressing caspase-6 (Homo sapiens, UniProt Q04637) (Q04637 whole entry): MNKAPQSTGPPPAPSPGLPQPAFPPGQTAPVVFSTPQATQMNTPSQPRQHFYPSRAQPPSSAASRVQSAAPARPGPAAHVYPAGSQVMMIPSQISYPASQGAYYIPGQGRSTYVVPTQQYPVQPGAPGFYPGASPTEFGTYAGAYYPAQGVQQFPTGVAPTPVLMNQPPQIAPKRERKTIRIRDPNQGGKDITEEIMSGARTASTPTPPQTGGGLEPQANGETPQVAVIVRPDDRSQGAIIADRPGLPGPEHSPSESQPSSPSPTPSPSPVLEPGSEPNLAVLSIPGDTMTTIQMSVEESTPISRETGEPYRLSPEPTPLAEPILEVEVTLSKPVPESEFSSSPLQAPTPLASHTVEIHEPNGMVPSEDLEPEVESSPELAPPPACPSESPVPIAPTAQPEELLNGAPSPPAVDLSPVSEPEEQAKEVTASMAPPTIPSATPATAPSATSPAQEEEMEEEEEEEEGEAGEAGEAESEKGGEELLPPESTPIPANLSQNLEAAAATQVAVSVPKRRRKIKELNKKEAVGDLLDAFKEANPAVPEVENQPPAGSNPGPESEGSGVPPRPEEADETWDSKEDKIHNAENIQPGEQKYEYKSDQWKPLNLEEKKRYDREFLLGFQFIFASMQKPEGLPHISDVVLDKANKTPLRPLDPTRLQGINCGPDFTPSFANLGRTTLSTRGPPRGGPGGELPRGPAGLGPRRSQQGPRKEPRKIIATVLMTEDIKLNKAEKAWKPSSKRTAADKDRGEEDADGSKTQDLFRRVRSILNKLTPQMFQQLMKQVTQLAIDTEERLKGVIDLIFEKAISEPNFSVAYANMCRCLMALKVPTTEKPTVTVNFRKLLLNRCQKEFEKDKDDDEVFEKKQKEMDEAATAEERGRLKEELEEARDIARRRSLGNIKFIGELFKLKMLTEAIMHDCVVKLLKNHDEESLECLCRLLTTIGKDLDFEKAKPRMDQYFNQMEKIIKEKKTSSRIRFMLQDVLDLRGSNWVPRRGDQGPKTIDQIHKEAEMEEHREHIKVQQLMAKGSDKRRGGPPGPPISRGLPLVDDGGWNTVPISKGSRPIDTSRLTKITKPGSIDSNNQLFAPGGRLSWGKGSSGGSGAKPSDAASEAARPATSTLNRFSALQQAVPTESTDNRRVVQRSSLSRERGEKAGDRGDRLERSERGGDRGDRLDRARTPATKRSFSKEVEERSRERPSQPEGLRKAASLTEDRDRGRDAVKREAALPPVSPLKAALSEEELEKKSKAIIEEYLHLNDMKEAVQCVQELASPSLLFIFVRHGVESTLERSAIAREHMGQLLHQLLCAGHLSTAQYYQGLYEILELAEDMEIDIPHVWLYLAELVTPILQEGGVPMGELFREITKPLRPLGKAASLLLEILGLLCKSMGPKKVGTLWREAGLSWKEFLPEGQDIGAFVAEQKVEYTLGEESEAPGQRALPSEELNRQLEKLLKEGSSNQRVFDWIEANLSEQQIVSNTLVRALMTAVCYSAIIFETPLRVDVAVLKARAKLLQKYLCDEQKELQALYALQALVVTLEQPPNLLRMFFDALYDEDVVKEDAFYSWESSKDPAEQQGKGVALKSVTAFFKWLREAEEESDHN
structure (smiles),measurement,setting,value
C#CCOc1ccc([C@@H]2C[C@@H](C(=O)Nc3ccc(OC(F)(F)F)cc3)CN(S(=O)(=O)C=C)C2)cc1 (relative stereo) [13-t],enrich.exp.med,[1],-0.1551
same,enrich.exp.med,"[2]; Probe, protein GOT2 P00505",-0.8861
same,enrich.exp.med.lin,[2]; protein GOT2 (P00505),0.5411
same,enrich.exp.med.log2,[2]; protein GOT2 (P00505),-0.8861
same,enrich.exp.med,[3],-0.08092
same,enrich.exp.med,"[4]; exp_ref Probe, analysis C6",1.036
same,enrich.exp.med.lin,[4],2.05
same,enrich.exp.med.log2,[4],1.036
same,enrich.exp.med,[5],1.753
same,enrich.exp.med,"[6]; Probe, protein RPL15 P61313",-0.9576
same,enrich.exp.med.lin,[6]; protein RPL15 (P61313),0.5149
same,enrich.exp.med.log2,[6]; protein RPL15 (P61313),-0.9576
same,enrich.exp.med,"[7]; Probe, protein HIST1H4A P62805",-2.533
same,enrich.exp.med.lin,[7]; protein HIST1H4A (P62805),0.1728
same,enrich.exp.med.log2,[7]; protein HIST1H4A (P62805),-2.533
same,enrich.exp.med,[8],-1.278
same,enrich.exp.med,"[9]; exp_ref Probe, analysis C6",0.9115
same,enrich.exp.med.lin,[9],1.881
same,enrich.exp.med.log2,[9],0.9115
same,enrich.exp.med,[10],1.294
same,enrich.exp.med,[11],0.5475
same,enrich.exp.med,[12],1.73
same,enrich.exp.med,"[13]; Probe, protein ACACA Q13085",-2.123
same,enrich.exp.med.lin,[13]; protein ACACA (Q13085),0.2296
same,enrich.exp.med.log2,[13]; protein ACACA (Q13085),-2.123
same,enrich.exp.med,[14],0.5563
same,enrich.exp.med,[15],-0.4487
same,enrich.exp.med,[16],-0.1105
same,enrich.exp.med,"[17]; exp_ref Probe, analysis C6",0.9115
same,enrich.exp.med.lin,[17],1.881
same,enrich.exp.med.log2,[17],0.9115
